# Measurements as given in patent US12708673B2, “Methods and compositions related to peptides and proteins with c-terminal elements” (Sanford Burnham Prebys Medical Discovery Institute, priority 2008, dated 2026).
# Columns and labels:
# PPC-1 cells [1] = assay: Binding and internalization of peptide-coated quantum dots by PPC-1 cells (confocal/fluorescence microscopy); format: cell-based, human; details: excess of RPARPAR-displaying phage
# Du-145 = assay: RPARPAR phage binding to cultured cells at 4° C.; format: cell-based, human; details: Du-145 prostate cancer cells
# Protocol: (§1) FIG. 15A: Binding of RPARPAR (SEQ ID NO:2) phage to the cultured cells at 4° C. in vitro. FIG. 15B: Binding of RPARPAR (SEQ ID NO:2) phage to primary cell suspensions of mouse organs at 4° C. ex vivo. FIGS. 15C and 15D: Tissue distribution of intravenously injected RPARPAR (SEQ ID NO:2) phage after 20 minutes of circulation time. FIG. 15C: Phage was quantified by titration, tissue binding is expressed as fold G7 phage. Statistical analysis was performed by Student's t-test (c). n=3; error bars indicate s.d.; double asterisk, p<0.01, triple asterisk, p<0.001. FIG. 15D (panels d and e): Immunofluorescence localization of T7 phage (light coloring) in lung sections of mice injected intravenously with RPARPAR (SEQ ID NO:2) (d) or G7 (e) phage. Widespread immunoreactivity is present in the lungs of mice injected with RPARPAR (SEQ ID NO:2) (arrowheads in d) but not G7 (with occasional labeling seen in vessels, arrows in e). Scale bar: 50 μm.
# (§2) Phage display. For in vivo phage display, mice were injected intravenously with 10^10 plaque-forming units (pfu) of T7 phage followed by perfusion of the circulatory system and determination of the bound phage in target organs by titration. For cell binding studies on cultured cells (in vitro display) and organ-derived cell suspensions (ex vivo display), the cells were incubated with 10^9 pfu of phage at 4° C., washed, lysed, and quantified by titration. […]
# PC-3 = assay: RPARPAR phage binding to cultured cells at 4° C.; format: cell-based, human; details: PC-3 prostate cancer cells
# Protocol: as §1, §2
# [2] = tested on: primary cells derived from normal mouse organs; assay: RPARPAR phage binding to primary cell suspensions of mouse organs at 4° C. ex vivo; format: cell-based; details: panel of normal mouse organs
# Protocol: as §1, §2
# [3] = Tissue distribution of intravenously injected phage in mice (titration, immunofluorescence); format: in vivo, mouse; details: intravenous
# Protocol: as §1
# Phage display. For in vivo phage display, mice were injected intravenously with 10^10 plaque-forming units (pfu) of T7 phage followed by perfusion of the circulatory system and determination of the bound phage in target organs by titration. For cell binding studies on cultured cells (in vitro display) and organ-derived cell suspensions (ex vivo display), the cells were incubated with 10^9 pfu of phage at 4° C., washed, lysed, and quantified by titration. Incubation at 37° C. followed by low pH wash (glycine-HCl, pH 2.5) was used to assess the amount of internalized phage.
# In vivo phage homing studies in mice were carried out by injecting 10^10 pfu of T7 phage into tail vein and 10 minutes to 1 hour later, the mice were perfused with DMEM through the left ventricle of the heart. The organs of interest were collected, homogenized in 1% NP40 and the phage was quantified by titration.
# wild-type NRP-1 = molecular target: T1, wild-type NRP-1 (Homo sapiens, UniProt O14786); assay: Phage binding and internalization in M21 melanoma cells transiently transfected with wild-type NRP-1; format: cell-based
# T1 construct: expressed in transfected cells; host or cells: M21 melanoma cells, transient transfection with lipofectamine; pcDNA3.1(+) construct, gift of Dr. Michael Klagsbrun
# Protocol: FIGS. 18A-18C show the identification and validation of NRP-1 as the CendR receptor. FIG. 18A: Affinity chromatography of proteins interacting with RPARPAR (SEQ ID NO: 2) peptide. PPC-1 tumor tissue was extracted with a 200 mM glucopyranoside buffer, and the extract was incubated with RPARPAR-coated (SEQ ID NO:2) beads, followed by extensive washes, and elution with 2 mM free RPARPAR (SEQ ID NO:2) peptide. Note appearance of a 130 kDa band, identified by mass spectroscopy as NRP-1, starting in the fraction 3 of the eluate. Upper panel—a silver stained gel, lower panel—an immunoblot with anti-NRP-1 antibody. FIG. 18B: Binding of RPARPAR (SEQ ID NO:2) phage to M21 melanoma cells transiently transfected with wild-type NRP-1 (NRP-1), triple mutant NS346A-E348A-T349A NRP-1 (Mutant NRP-1), or parental pcDNA3.1plasmid (Vector), and to non-transfected M21 cells. FIG. 18C: (c, d), Confocal immunofluorescence images of NRP-1 and RPARPAR (SEQ ID NO:2) T7 phage in PPC-1 cells incubated with phage at 37° C. for 40 minutes (c) and 3 hours (d). The phage and NRP-1 co-localize extensively, but there appears to be a progressive decrease in the overlap (arrowheads in c and d) and appearance of structures positive for the phage only (arrows, d). (e) Immunostaining and confocal imaging of RPARPAR (SEQ ID NO:2) phage and NRP-1 in M21 cells transiently transfected with NRP-1. […]
# PPC-1 cells [4] = assay: Confocal immunofluorescence co-staining of phage/qdots with cellular markers in PPC-1 cells; format: cell-based, human
# T1 sequence (O14786 22-923): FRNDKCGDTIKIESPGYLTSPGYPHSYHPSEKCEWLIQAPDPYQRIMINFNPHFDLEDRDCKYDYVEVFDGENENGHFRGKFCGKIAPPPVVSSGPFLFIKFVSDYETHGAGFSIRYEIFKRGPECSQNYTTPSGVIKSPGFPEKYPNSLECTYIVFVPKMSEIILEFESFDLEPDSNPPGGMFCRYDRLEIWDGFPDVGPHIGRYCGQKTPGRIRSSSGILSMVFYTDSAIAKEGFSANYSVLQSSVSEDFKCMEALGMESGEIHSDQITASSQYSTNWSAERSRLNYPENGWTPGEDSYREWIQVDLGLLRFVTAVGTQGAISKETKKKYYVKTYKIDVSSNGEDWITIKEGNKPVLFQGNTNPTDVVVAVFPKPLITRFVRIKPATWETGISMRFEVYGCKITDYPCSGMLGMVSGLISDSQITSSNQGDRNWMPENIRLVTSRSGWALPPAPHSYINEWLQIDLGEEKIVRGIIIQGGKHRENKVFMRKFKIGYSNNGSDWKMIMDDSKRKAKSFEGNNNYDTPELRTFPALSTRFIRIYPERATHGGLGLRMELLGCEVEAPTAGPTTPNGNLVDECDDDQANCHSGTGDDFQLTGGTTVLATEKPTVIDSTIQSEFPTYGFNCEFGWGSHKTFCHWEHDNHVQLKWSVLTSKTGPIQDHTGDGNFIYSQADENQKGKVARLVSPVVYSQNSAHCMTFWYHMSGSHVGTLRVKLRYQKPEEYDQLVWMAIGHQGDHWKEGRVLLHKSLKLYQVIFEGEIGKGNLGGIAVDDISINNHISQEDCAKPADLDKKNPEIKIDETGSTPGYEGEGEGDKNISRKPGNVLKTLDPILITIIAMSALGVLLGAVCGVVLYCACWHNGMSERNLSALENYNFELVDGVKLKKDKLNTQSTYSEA
substance,measurement,setting,value
RPARPAR [RPARPAR phage],Effect of pre-incubation of cells with excess phage on RPARPAR-Q-dot internalization,PPC-1 cells [1],inhibited
same,Phage binding,Du-145,bound
same,Phage binding,PC-3,bound
same,Phage binding,[2],also bound
same,Penetration into tissue parenchyma (lungs),[3],able to penetrate into tissue parenchyma
same,Phage immunoreactivity in lung sections,[3],seen throughout the tissue
same,Accumulation of intravenously injected phage in the heart,[3]; 20 minutes of circulation,to a lesser extent
same,Accumulation of intravenously injected phage in the lungs,[3]; 20 minutes of circulation,accumulated strongly
same,Phage binding and internalization by M21 cells with forced expression of NRP-1,wild-type NRP-1,capable of binding and internalizing
same,Overlap of phage immunoreactivity with labeled cholera toxin subunit B,PPC-1 cells [4]; 180 minutes,significant overlap
same,Overlap of internalized phage staining with subcellular compartment markers,"PPC-1 cells [4]; LAMP-1, caveolin-1, calnexin, EEA-1, 60 minutes",did not show any clear overlap
